Tests used:
[1] = test system: blackgrass; assay: Test B pre/postemergence blackgrass; type: in vivo, Alopecurus myosuroides
Procedure, shortened: (§1)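 Herbicidal effect was estimated by eye on a ten-point control scale after plants spent twelve to sixteen days in a greenhouse following soil or foliar treatment. Foliar sprays targeted plants at one to four leaves; all doses were formulated in a non-phytotoxic solvent with surfactant.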

[2] = test system: surinam grass; assay: Test B pre/postemergence surinam grass; type: in vivo, Brachiaria decumbens
Procedure, shortened: as §1

[3] = test system: cocklebur; assay: Test B pre/postemergence cocklebur; type: in vivo, Xanthium strumarium
Procedure, shortened: as §1

[4] = test system: corn; assay: Test B pre/postemergence corn; type: in vivo, Zea mays
Procedure, shortened: as §1

[5] = test system: crabgrass; assay: Test B pre/postemergence crabgrass; type: in vivo, Digitaria sanguinalis
Procedure, shortened: as §1

[6] = test system: giant foxtail; assay: Test B pre/postemergence giant foxtail; type: in vivo, Setaria faberii
Procedure, shortened: as §1

[7] = test system: morningglory; assay: Test B pre/postemergence morningglory; type: in vivo, Ipomoea hederacea; details: for Plant response rating, Morningglory: scale of 0 to 10 where 0 is no effect and 10 is complete control
Procedure, shortened: as §1

[8] = test system: pigweed; assay: Test B pre/postemergence pigweed; type: in vivo, Amaranthus retroflexus; details: for Plant response rating, Redroot pigweed: scale of 0 to 10 where 0 is no effect and 10 is complete control
Procedure, shortened: as §1

[9] = test system: rape; assay: Test B pre/postemergence rape; type: in vivo, Brassica napus; details: for Plant response rating, Rape: scale of 0 to 10 where 0 is no effect and 10 is complete control
Procedure, shortened: as §1

[10] = test system: soybean; assay: Test B pre/postemergence soybean; type: in vivo, Glycine max; details: for Plant response rating, Soybean: scale of 0 to 10 where 0 is no effect and 10 is complete control
Procedure, shortened: as §1

[11] = test system: sugar beet; assay: Test B pre/postemergence sugar beet; type: in vivo, Beta vulgaris; details: for Plant response rating, Sugarbeets: scale of 0 to 10 where 0 is no effect and 10 is complete control
Procedure, shortened: as §1

[12] = test system: velvetleaf; assay: Test B pre/postemergence velvetleaf; type: in vivo, Abutilon theophrasti; details: for Plant response rating, Velvetleaf: scale of 0 to 10 where 0 is no effect and 10 is complete control
Procedure, shortened: as §1

[13] = test system: wheat; assay: Test B pre/postemergence wheat; type: in vivo, Triticum aestivum; details: for Plant response rating, Wheat: scale of 0 to 10 where 0 is no effect and 10 is complete control
Procedure, shortened: as §1

[14] = test system: wild oat; assay: Test B pre/postemergence wild oat; type: in vivo, Avena fatua; details: for Plant response rating, Wild oats: scale of 0 to 10 where 0 is no effect and 10 is complete control
Procedure, shortened: as §1

[15] = test system: rice; assay: Test B flood test rice; type: in vivo, Oryza sativa
Procedure, shortened: (§2)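 Each value is a visual injury score relative to controls, with 10 meaning complete control and 0 no effect. Evaluation took place twelve to sixteen days after the 2-leaf-stage plants were treated and kept in the greenhouse.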

[16] = test system: smallflower flatsedge; assay: Test B flood test smallflower flatsedge; type: in vivo, Cyperus difformis
Procedure, shortened: as §2

[17] = Postemergence, Rate 250 g/ha, scale 0 to 10
[18] = Postemergence, Rate 500 g/ha, scale of 0 to 10 where 0 is no effect and 10 is complete control
[19] = Preemergence, Rate 62 g/ha, scale of 0 to 10 where 0 is no effect and 10 is complete control
[20] = Preemergence, Rate 125 g/ha, scale of 0 to 10 where 0 is no effect and 10 is complete control
[21] = Preemergence, Rate 250 g/ha, scale 0 to 10, 0 is no effect, 10 is complete control
[22] = Preemergence, Rate 500 g/ha, scale 0 to 10, 0 is no effect, 10 is complete control
[23] = Rate 62 g/ha, Postemergence, scale 0 to 10 (0 no effect, 10 complete control)
[24] = Rate 125 g/ha, Postemergence, scale 0 to 10, 0 is no effect, 10 is complete control
[25] = Rate 62 g/ha, flood test species, Pre-emergence, visual evaluation after twelve to sixteen days
[26] = Rate 125 g/ha, under heading Pre-emergence, flood test species, visual evaluation after twelve to sixteen days
[27] = Rate 250 g/ha, Pre-emergence (flood test species), scale 0 to 10, 0 is no effect, 10 is complete control
[28] = Rate 500 g/ha, Pre-emergence, flood test species, scale 0 to 10 (0 no effect, 10 complete control)

Which results are given for `CC(C)N(C(=O)n1oc(=O)n(CCS(C)(=O)=O)c1=O)c1ccc(F)cc1` [Compound 453]?
Blackgrass plant response rating [1, 17]: 6; Blackgrass plant response rating [1, 18]: 6; Plant response rating, Blackgrass [1, 19]: 0; Plant response rating, Blackgrass [1, 20]: 0; Blackgrass plant response rating [1, 21]: 3; Blackgrass plant response rating [1, 22]: 5; Blackgrass plant response rating [1, 23]: 0; Blackgrass plant response rating [1, 24]: 0; B. signalgrass plant response rating ([2]; Postemergence, Rate 250 g/ha, scale 0 to 10, 0 no effect, 10 complete control): 2; B. signalgrass plant response rating [2, 18]: 5; Plant response rating, B. signalgrass [2, 19]: 0; Plant response rating, B. signalgrass [2, 20]: 2; B. signalgrass plant response rating [2, 21]: 6; B. signalgrass plant response rating [2, 22]: 6; B. signalgrass plant response rating [2, 23]: 0; B. signalgrass plant response rating [2, 24]: 0; Cocklebur plant response rating [3, 17]: 0; Cocklebur plant response rating [3, 18]: 0; Plant response rating, Cocklebur [3, 19]: 0; Plant response rating, Cocklebur [3, 20]: 0; Cocklebur plant response rating [3, 21]: 0; Cocklebur plant response rating [3, 22]: 0; Cocklebur plant response rating [3, 23]: 0; Cocklebur plant response rating [3, 24]: 0; Corn plant response rating [4, 17]: 0; Corn plant response rating [4, 18]: 0; Plant response rating, Corn [4, 19]: 0; Plant response rating, Corn [4, 20]: 0; Corn plant response rating [4, 21]: 0; Corn plant response rating [4, 22]: 3; Corn plant response rating [4, 23]: 0; Corn plant response rating [4, 24]: 0; Crabgrass plant response rating [5, 17]: 4; Crabgrass plant response rating [5, 18]: 10; Plant response rating, Crabgrass [5, 19]: 5; Plant response rating, Crabgrass [5, 20]: 6; Crabgrass plant response rating [5, 21]: 6; Crabgrass plant response rating [5, 22]: 7; Crabgrass plant response rating [5, 23]: 0; Giant foxtail plant response rating [6, 17]: 7; Giant foxtail plant response rating [6, 18]: 9; Plant response rating, Giant foxtail [6, 19]: 7; Plant response rating, Giant foxtail [6, 20]: 9; Giant foxtail plant response rating [6, 21]: 10; Giant foxtail plant response rating [6, 22]: 10; Giant foxtail plant response rating [6, 23]: 3; Giant foxtail plant response rating [6, 24]: 5; Morningglory plant response rating [7, 17]: 2; Plant response rating, Morningglory ([7]; Preemergence, Rate 62 g/ha): 0; Plant response rating, Morningglory ([7]; Preemergence, Rate 125 g/ha): 0; Morningglory plant response rating [7, 21]: 0; Morningglory plant response rating [7, 22]: 3; Morningglory plant response rating [7, 23]: 0; Morningglory plant response rating [7, 24]: 0; Redroot pigweed plant response rating [8, 17]: 0; Plant response rating, Redroot pigweed ([8]; Preemergence, Rate 62 g/ha): 0; Plant response rating, Redroot pigweed ([8]; Preemergence, Rate 125 g/ha): 4; Redroot pigweed plant response rating [8, 21]: 6; Redroot pigweed plant response rating [8, 22]: 10; Redroot pigweed plant response rating [8, 23]: 0; Redroot pigweed plant response rating [8, 24]: 0; Rape plant response rating [9, 17]: 0; Plant response rating, Rape ([9]; Preemergence, Rate 62 g/ha): 0; Plant response rating, Rape ([9]; Preemergence, Rate 125 g/ha): 0; Rape plant response rating [9, 21]: 0; Rape plant response rating [9, 22]: 3; Rape plant response rating [9, 23]: 0; Rape plant response rating [9, 24]: 0; Soybean plant response rating [10, 17]: 1; Plant response rating, Soybean ([10]; Preemergence, Rate 62 g/ha): 0; Plant response rating, Soybean ([10]; Preemergence, Rate 125 g/ha): 0; Soybean plant response rating [10, 21]: 0; Soybean plant response rating [10, 22]: 0; Soybean plant response rating [10, 23]: 1; Soybean plant response rating [10, 24]: 1; Sugarbeets plant response rating [11, 17]: 0; Plant response rating, Sugarbeets ([11]; Preemergence, Rate 62 g/ha): 0; Plant response rating, Sugarbeets ([11]; Preemergence, Rate 125 g/ha): 0; Sugarbeets plant response rating [11, 21]: 2; Sugarbeets plant response rating [11, 22]: 5; Sugarbeets plant response rating [11, 23]: 0; Sugarbeets plant response rating [11, 24]: 0; Velvetleaf plant response rating [12, 17]: 0; Plant response rating, Velvetleaf ([12]; Preemergence, Rate 62 g/ha): 0; Plant response rating, Velvetleaf ([12]; Preemergence, Rate 125 g/ha): 0; Velvetleaf plant response rating [12, 21]: 2; Velvetleaf plant response rating [12, 22]: 6; Velvetleaf plant response rating [12, 23]: 0; Velvetleaf plant response rating [12, 24]: 0; Wheat plant response rating [13, 17]: 0; Plant response rating, Wheat ([13]; Preemergence, Rate 62 g/ha): 0; Plant response rating, Wheat ([13]; Preemergence, Rate 125 g/ha): 0; Wheat plant response rating [13, 21]: 3; Wheat plant response rating [13, 22]: 6; Wheat plant response rating [13, 23]: 0; Wheat plant response rating [13, 24]: 0; Wild oats plant response rating [14, 17]: 0; Plant response rating, Wild oats ([14]; Preemergence, Rate 62 g/ha): 0; Plant response rating, Wild oats ([14]; Preemergence, Rate 125 g/ha): 0; Wild oats plant response rating [14, 21]: 2; Wild oats plant response rating [14, 22]: 8; Wild oats plant response rating [14, 23]: 0; Wild oats plant response rating [14, 24]: 0; Plant response rating, Rice (0 to 10 scale, 0 is no effect, 10 is complete control) [15, 25]: 0; Rice plant response rating (0 to 10 scale, 0 is no effect, 10 is complete control) [15, 26]: 0; Rice plant response rating [15, 27]: 0; Rice plant response rating [15, 28]: 0; Plant response rating, S. Flatsedge (0 to 10 scale, 0 is no effect, 10 is complete control) [16, 25]: 0; S. Flatsedge plant response rating (0 to 10 scale, 0 is no effect, 10 is complete control) [16, 26]: 0; S. Flatsedge plant response rating [16, 27]: 0; S. Flatsedge plant response rating [16, 28]: 0
